Source: ChEMBL document CHEMBL1152560, “Substituted 2-arylbenzothiazoles as kinase inhibitors: hit-to-lead optimization” (Bioorg Med Chem, 2009)

Columns and labels:
[1] = target: Mast/stem cell growth factor receptor Kit (Homo sapiens) (UniProt P10721); test: Residual activity of wild type KIT at 1 uM by microplate scintillation counting
[2] = target: T1, Serine/threonine-protein kinase Nek1 (Homo sapiens) (UniProt Q96PY6); test: Residual activity of NEK1 at 1 uM by microplate scintillation counting
T1 sequence (whole entry): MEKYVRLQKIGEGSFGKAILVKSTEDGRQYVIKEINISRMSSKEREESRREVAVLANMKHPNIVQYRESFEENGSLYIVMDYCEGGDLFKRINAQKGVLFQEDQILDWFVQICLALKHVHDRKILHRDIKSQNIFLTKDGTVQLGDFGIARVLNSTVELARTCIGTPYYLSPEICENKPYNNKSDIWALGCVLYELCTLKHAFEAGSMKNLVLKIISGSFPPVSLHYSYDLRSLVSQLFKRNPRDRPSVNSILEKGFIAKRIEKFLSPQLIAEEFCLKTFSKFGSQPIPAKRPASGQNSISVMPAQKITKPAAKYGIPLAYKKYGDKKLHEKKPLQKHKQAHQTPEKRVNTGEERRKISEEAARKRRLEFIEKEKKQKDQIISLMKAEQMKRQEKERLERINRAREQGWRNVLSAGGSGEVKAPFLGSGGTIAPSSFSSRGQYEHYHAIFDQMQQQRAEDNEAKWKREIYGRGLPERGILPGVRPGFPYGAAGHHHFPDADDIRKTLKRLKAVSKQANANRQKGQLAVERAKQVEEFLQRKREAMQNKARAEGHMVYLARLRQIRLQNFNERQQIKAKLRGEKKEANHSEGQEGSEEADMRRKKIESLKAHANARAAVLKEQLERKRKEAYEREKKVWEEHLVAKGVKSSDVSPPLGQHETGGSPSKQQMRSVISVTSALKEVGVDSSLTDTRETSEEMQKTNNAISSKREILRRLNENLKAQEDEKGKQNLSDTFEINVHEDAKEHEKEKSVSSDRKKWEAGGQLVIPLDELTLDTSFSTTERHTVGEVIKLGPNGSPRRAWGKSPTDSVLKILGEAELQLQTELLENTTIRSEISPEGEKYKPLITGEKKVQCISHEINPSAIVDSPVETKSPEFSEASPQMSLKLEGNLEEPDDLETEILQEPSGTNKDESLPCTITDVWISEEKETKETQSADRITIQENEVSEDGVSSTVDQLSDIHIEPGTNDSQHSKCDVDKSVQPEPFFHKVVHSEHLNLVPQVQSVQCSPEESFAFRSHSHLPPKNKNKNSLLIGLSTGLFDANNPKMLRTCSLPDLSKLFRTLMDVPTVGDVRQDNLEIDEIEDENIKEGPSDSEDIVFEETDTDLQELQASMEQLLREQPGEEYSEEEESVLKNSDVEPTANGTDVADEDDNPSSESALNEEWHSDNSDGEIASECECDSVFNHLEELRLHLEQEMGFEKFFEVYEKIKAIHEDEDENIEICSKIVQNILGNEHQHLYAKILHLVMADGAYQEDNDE

[3] = target: SRSF protein kinase 3 (Homo sapiens) (UniProt Q9UPE1); test: Residual activity of STK23 at 1 uM by microplate scintillation counting
Sequence of SRSF protein kinase 3 (Homo sapiens) (Q9UPE1 whole entry): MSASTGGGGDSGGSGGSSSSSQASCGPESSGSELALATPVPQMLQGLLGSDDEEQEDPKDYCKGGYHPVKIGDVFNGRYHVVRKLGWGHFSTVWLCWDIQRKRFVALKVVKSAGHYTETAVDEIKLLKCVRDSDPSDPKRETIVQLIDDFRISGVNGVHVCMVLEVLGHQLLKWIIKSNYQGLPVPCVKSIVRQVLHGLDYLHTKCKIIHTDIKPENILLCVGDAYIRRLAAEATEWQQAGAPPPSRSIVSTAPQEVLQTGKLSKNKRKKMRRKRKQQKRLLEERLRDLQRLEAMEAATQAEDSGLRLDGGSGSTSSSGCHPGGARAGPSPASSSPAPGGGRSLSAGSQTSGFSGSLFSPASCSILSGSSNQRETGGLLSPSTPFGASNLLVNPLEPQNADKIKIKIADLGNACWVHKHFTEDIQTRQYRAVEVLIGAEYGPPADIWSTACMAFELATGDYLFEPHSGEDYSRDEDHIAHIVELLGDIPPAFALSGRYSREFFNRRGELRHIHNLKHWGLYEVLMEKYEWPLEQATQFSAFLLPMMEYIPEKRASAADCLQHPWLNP

[4] = target: Death-associated protein kinase 3 (Homo sapiens) (UniProt O43293); test: Residual activity of DAPK3 at 10 uM by microplate scintillation counting
Sequence of Death-associated protein kinase 3 (Homo sapiens) (O43293 whole entry, looked up, canonical isoform): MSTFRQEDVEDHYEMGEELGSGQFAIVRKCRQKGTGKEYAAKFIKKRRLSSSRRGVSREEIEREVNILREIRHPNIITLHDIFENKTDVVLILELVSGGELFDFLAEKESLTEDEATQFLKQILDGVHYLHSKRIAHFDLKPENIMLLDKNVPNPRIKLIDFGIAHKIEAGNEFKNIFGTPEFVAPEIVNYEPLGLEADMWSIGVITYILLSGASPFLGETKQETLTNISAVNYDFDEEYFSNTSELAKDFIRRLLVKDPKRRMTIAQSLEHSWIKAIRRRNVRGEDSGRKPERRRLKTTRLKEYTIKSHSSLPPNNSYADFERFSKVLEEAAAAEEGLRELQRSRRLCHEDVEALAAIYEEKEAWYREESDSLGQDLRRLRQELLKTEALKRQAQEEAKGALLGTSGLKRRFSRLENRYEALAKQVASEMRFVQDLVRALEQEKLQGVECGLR

[5] = target: T2, Phosphorylase b kinase gamma catalytic chain, liver/testis isoform (Homo sapiens) (UniProt P15735); test: Residual activity of PHKG2 at 0.1 uM by microplate scintillation counting
T2 sequence (whole entry): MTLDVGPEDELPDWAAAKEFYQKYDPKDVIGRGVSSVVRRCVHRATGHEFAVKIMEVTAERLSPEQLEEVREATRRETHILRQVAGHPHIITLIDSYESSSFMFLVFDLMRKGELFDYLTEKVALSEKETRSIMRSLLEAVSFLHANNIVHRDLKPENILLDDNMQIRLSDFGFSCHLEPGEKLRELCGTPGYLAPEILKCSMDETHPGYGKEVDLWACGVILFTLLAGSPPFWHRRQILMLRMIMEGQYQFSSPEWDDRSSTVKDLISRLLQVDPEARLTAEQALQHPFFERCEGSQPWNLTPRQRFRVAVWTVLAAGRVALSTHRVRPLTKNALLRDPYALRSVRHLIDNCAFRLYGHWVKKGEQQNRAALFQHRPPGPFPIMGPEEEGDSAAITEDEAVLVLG

[6] = target: T3, Protein kinase C zeta type (Homo sapiens) (UniProt Q05513); test: Residual activity of PKCzeta at 0.1 uM by microplate scintillation counting
T3 sequence (whole entry): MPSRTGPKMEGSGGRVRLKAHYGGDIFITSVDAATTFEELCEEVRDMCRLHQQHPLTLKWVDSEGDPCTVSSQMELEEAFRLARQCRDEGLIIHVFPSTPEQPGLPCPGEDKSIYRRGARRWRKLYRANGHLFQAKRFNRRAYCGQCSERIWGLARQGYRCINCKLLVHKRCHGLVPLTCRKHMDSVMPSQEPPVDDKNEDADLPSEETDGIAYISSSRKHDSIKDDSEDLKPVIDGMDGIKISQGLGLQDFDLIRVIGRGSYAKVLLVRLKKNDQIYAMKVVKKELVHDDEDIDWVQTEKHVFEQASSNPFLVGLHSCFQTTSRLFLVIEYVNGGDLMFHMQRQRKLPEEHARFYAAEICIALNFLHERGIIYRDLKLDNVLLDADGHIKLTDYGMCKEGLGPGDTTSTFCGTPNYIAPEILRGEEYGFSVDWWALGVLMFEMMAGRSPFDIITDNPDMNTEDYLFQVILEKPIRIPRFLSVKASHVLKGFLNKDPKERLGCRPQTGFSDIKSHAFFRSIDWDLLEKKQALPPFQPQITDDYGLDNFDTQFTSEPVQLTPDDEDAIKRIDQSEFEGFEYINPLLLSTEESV

[7] = target: T4, Testis-specific serine/threonine-protein kinase 1 (Homo sapiens) (UniProt Q9BXA7); test: Residual activity of TSSK1 at 10 uM by microplate scintillation counting
T4 sequence (whole entry): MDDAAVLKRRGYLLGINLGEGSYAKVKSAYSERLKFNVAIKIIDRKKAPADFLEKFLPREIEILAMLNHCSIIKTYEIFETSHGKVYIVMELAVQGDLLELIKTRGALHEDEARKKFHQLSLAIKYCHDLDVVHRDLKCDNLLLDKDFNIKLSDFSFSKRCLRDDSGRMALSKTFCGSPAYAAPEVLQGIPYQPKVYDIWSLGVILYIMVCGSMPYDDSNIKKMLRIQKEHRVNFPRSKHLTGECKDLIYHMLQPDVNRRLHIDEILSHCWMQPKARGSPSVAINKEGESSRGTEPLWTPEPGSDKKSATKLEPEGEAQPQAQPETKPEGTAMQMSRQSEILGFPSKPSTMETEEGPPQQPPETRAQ

Sequence of Mast/stem cell growth factor receptor Kit (Homo sapiens) (P10721 whole entry): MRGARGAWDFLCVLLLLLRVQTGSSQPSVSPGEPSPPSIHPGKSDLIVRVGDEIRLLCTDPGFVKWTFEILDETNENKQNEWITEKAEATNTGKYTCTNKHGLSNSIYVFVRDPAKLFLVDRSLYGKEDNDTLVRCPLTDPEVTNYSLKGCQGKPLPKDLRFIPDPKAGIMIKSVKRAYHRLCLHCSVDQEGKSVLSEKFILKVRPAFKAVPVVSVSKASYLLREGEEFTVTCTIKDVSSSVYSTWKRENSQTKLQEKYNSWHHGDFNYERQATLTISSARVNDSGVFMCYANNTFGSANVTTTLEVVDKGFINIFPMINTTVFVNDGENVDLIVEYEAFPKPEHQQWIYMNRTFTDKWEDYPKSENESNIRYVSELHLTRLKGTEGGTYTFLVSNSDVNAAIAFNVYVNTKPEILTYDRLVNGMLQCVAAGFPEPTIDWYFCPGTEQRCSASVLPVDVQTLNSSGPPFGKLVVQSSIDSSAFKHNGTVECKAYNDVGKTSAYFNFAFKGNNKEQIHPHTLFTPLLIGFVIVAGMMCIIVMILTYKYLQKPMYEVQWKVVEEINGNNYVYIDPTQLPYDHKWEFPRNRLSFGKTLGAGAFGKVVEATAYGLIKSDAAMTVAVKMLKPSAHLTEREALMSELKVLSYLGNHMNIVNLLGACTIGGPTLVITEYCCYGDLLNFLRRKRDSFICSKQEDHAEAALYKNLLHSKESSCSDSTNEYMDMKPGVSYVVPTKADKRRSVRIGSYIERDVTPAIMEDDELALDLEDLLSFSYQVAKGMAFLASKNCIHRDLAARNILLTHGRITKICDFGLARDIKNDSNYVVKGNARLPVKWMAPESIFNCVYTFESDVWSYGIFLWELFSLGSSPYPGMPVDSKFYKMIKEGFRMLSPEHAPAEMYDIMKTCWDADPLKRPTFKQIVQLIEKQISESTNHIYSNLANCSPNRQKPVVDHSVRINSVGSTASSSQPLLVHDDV

SMILES	residual activity [1] [%]	residual activity [2] [%]	residual activity [3] [%]	residual activity [4] [%]	residual activity [5] [%]	residual activity [6] [%]	residual activity [7] [%]
COc1cc2c(Oc3ccc(-c4nc5ccccc5s4)cc3)ncnc2cc1OCCCN1CCN(C)CC1	124	85	95	96	86	85	406
COc1cc2c(Oc3ccc(-c4nc5ccccc5s4)cc3)ncnc2cc1OCCCN1CCCC1	129	85	83	90	83	107	322
COc1cc2c(Oc3ccc(-c4nc5ccccc5s4)cc3F)ncnc2cc1OCCCN1CCN(C)CC1	128	94	87	89	53	97	397
